According to patent US20230416238A1, “N-[(1,3-BENZOXAZOL-2-YL)-HETEROCYCLE]AMIDE DERIVATIVES FOR THE TREATMENT AND PROPHYLAXIS OF HEPATITIS B VIRUS INFECTION” (Hoffmann-La Roche Inc., priority 2020, published 2023):

Tests used:
Assay type in all cases: cell-based
[1] = test system: HBsAg; test: PHH HBV natural infection assay, HBsAg (alphalisa); conditions: Hepatitis B virus, Hepatocyte, read-out: HBsAg IC50
Method: (§1) Detailed procedures regarding primary human hepatocyte (PHH) HBV natural infection assay are described as below. One tube of frozen PHH (10 million cells) is thawed in 37° C. water bath and then transferred to 20 mL of PHH thawing medium (Sigma, InVitroGRO HT Medium, Cat. S03319) with gently mixing. The cells were then centrifuged at […] for 5 min, the supernatant was discarded and the tube was refilled with 25 mL of PHH plating medium (Sigma, InVitroGRO CP Medium, Cat. S03317). The tube was shaken very gently to re-suspend all cells, and then 50 μL of cells were transferred to each well 384-well collagen I coated plate with appropriate liquid handling equipment, e.g. Integra VIAFLO384 or Agilent Bravo. The cells were then cultured for 24 hours in a cell incubator. For HBV infection, after PHH attachment on the culture plate, the plating medium was removed and replenished with PHH culture medium containing HBV virus. The PHH culture medium was prepared with Dulbecco's Modified Eagle Medium (DMEM)/F12 (1:1 in volume ratio) containing 10% fetal bovine serum (Gibco, Cat. 10099141), 5 ng/mL human epidermal growth factor (Gibco, Cat. PHG0311L), 20 ng/mL dexamethasone (Sigma, Cat. D4902-100 mg), 250 ng/mL human recombinant insulin (Gibco, Cat. 41400045) and 100 U/mL penicillin. HBV virus at 200 genome equivalent (GE) per cell with 4% PEG8000 (Sigma, Cat. P1458) containing culture medium were added to the PHH culture medium for infection. The cells were then cultured for 24 hours in cell incubator. Then the cell culture supernatant was removed. The HBV-infected PHH were cultured with sandwich culture method with MEI culture medium containing 1% DMSO and 0.25 mg/mL matrix gel for 72 hours. The supernatant was then refreshed with PHH culture medium containing different concentrations of testing compounds for two times with 72-hour interval. At the end of treatment, the supernatant was collected for viral markers measurements, including HBsAg, HBeAg, HBV DNA and cytotoxicity. HBsAg and HBeAg were detected using alphalisa method using their specific antibodies. For HBV DNA detection, HBV DNA Quantitative Fluorescence Diagnostic Kit (Sansure Biotech Inc.) was used following the manufacture's protocol. Cytotoxicity was determined using Cell Counting Kit-8 (CCK8, Dojindo Molecular Technologies, Inc.).
(§2) The compounds of the present invention were tested for their capacity to inhibit HBsAg and HBeAg as described herein.

[2] = test system: HBeAg; test: PHH HBV natural infection assay, HBeAg (alphalisa); conditions: Hepatitis B virus, Hepatocyte, read-out: HBeAg IC50
Method: as §1, §2

[3] = Cytotoxicity in PHH natural infection assay (Cell Counting Kit-8); conditions: HBV-infected primary human hepatocytes, CCK8
Method: as §1

SMILES | IC50 [1] | IC50 [2] | CC50 at 144 h [3]
CS(=O)(=O)c1cc(C(=O)NC2CC3(C2)CN(c2nc4cc(Cl)ccc4o2)C3)ccn1 [Example 52, N-[2-(5-chloro-1,3-benzoxazol-2-yl)-2-azaspiro[3.3]heptan-6-yl]-2-methylsulfonyl-pyridine-4-carboxamide] | 1.5 µM | 1.26 µM | > 100 µM
CCS(=O)(=O)c1cc(C(=O)NC2CC3(C2)CN(c2nc4cc(Cl)ccc4o2)C3)ccn1 [Example 53, N-[2-(5-chloro-1,3-benzoxazol-2-yl)-2-azaspiro[3.3]heptan-6-yl]-2-ethylsulfonyl-pyridine-4-carboxamide] | 1.41 µM | 0.785 µM | 93.2 µM
CC(C)CS(=O)(=O)c1ccc(C(=O)NC2CC3(C2)CN(c2nc4cc(Cl)ccc4o2)C3)o1 [Example 54, N-[2-(5-chloro-1,3-benzoxazol-2-yl)-2-azaspiro[3.3]heptan-6-yl]-5-isobutylsulfonyl-furan-2-carboxamide] | 1.27 µM | 0.828 µM | 84.5 µM
O=C(NC1CC2(C1)CN(c1nc3cc(Cl)ccc3o1)C2)c1ccnc(C(F)(F)F)c1 [Example 55, N-[2-(5-chloro-1,3-benzoxazol-2-yl)-2-azaspiro[3.3]heptan-6-yl]-2-(trifluoromethyl)pyridine-4-carboxamide] | 1.23 µM | 0.966 µM | 71.1 µM
CS(=O)(=O)c1ccc(C(=O)NC2CC3(C2)CN(c2nc4cc(Cl)ccc4o2)C3)o1 [Example 56, N-[2-(5-chloro-1,3-benzoxazol-2-yl)-2-azaspiro[3.3]heptan-6-yl]-5-methylsulfonyl-furan-2-carboxamide] | 1.22 µM | 0.996 µM | > 100 µM
N=S(=O)(CC1CC1)c1ccc(C(=O)NC2CC3(C2)CN(c2nc4cc(Cl)ccc4o2)C3)o1 (stereo not drawn) [Example 57, N-[2-(5-chloro-1,3-benzoxazol-2-yl)-2-azaspiro[3.3]heptan-6-yl]-5-(cyclopropylmethylsulfonimidoyl)furan-2-carboxamide] | 0.996 µM | 0.953 µM | > 100 µM
CCS(=O)(=O)c1ccc(C(=O)NC2CC3(C2)CN(c2nc4cc(Cl)ccc4o2)C3)o1 [Example 58, N-[2-(5-chloro-1,3-benzoxazol-2-yl)-2-azaspiro[3.3]heptan-6-yl]-5-ethylsulfonyl-furan-2-carboxamide] | 0.918 µM | 0.812 µM | > 100 µM
O=C(NC1CC2(C1)CN(c1nc3cc(Cl)ccc3o1)C2)c1ccc(S(=O)(=O)NC2CC2)o1 [Example 59, N-[2-(5-chloro-1,3-benzoxazol-2-yl)-2-azaspiro[3.3]heptan-6-yl]-5-(cyclopropylsulfamoyl)furan-2-carboxamide] | 2.84 µM | 1.46 µM | > 10 µM
O=C(NC1CC2(C1)CN(c1nc3cc(Cl)ccc3o1)C2)c1ccc(S(=O)(=O)NC2CC(F)(F)C2)o1 [Example 60, N-[2-(5-chloro-1,3-benzoxazol-2-yl)-2-azaspiro[3.3]heptan-6-yl]-5-[(3,3-difluorocyclobutyl)sulfamoyl]furan-2-carboxamide] | 2.52 µM | 2.55 µM | > 10 µM
O=C(NC1CC2(C1)CN(c1nc3cc(Cl)ccc3o1)C2)c1ccc([S+]([O-])CC2CC2)o1 (stereo not drawn) [Example 61, N-[2-(5-chloro-1,3-benzoxazol-2-yl)-2-azaspiro[3.3]heptan-6-yl]-5-(cyclopropylmethylsulfinyl)furan-2-carboxamide] | 0.189 µM | 0.402 µM | 96 µM
CC(C)C[S+]([O-])c1ccc(C(=O)NC2CC3(C2)CN(c2nc4cc(Cl)ccc4o2)C3)o1 (stereo not drawn) [Example 62, N-[2-(5-chloro-1,3-benzoxazol-2-yl)-2-azaspiro[3.3]heptan-6-yl]-5-isobutylsulfinyl-furan-2-carboxamide] | 0.449 µM | 0.393 µM | 77.4 µM
C[S@@](=N)(=O)c1ccc(C(=O)NC2CC3(C2)CN(c2nc4cc(Cl)ccc4o2)C3)o1 [Example 63, N-[2-(5-chloro-1,3-benzoxazol-2-yl)-2-azaspiro[3.3]heptan-6-yl]-5-[(R)-methylsulfonimidoyl]furan-2-carboxamide] | 2.47 µM | 1.42 µM | > 100 µM
C[S+]([O-])c1ccc(C(=O)NC2CC3(C2)CN(c2nc4cc(Cl)ccc4o2)C3)o1 (stereo not drawn) [Example 64, N-[2-(5-chloro-1,3-benzoxazol-2-yl)-2-azaspiro[3.3]heptan-6-yl]-5-methylsulfinyl-furan-2-carboxamide] | 2.52 µM | 1.54 µM | > 100 µM
O=C(NC1CC2(C1)CN(c1nc3cc(Cl)ccc3o1)C2)c1ccc(S(=O)(=O)CC2CC2)o1 [Example 65, N-[2-(5-chloro-1,3-benzoxazol-2-yl)-2-azaspiro[3.3]heptan-6-yl]-5-(cyclopropylmethylsulfonyl)furan-2-carboxamide] | 0.806 µM | 1.07 µM | 92.3 µM
O=C(NC1CC2(C1)CN(c1nc3cc(Cl)ccc3o1)C2)c1ccnc(S(=O)(=O)C2CC2)c1 [Example 66, N-[2-(5-chloro-1,3-benzoxazol-2-yl)-2-azaspiro[3.3]heptan-6-yl]-2-cyclopropylsulfonyl-pyridine-4-carboxamide] | 0.781 µM | 0.608 µM | 84.2 µM
CC1(NC(=O)c2ccc(S(C)(=O)=O)o2)CC2(CN(c3nc4cc(Cl)ccc4o3)C2)C1 [Example 67, N-[2-(5-chloro-1,3-benzoxazol-2-yl)-6-methyl-2-azaspiro[3.3]heptan-6-yl]-5-methylsulfonyl-furan-2-carboxamide] | 1.77 µM | 2.13 µM | > 100 µM
CC1(NC(=O)c2ccnc(C(F)(F)F)c2)CC2(CN(c3nc4cc(Cl)ccc4o3)C2)C1 [Example 68, N-[2-(5-chloro-1,3-benzoxazol-2-yl)-6-methyl-2-azaspiro[3.3]heptan-6-yl]-2-(trifluoromethyl)pyridine-4-carboxamide] | 4.35 µM | 4.69 µM | 86.9 µM
O=C(NC1CCC2(C1)CN(c1nc3cc(Cl)ccc3o1)C2)c1ccc(C(F)(F)F)o1 (stereo not drawn) [Example 69, N-[2-(5-chloro-1,3-benzoxazol-2-yl)-2-azaspiro[3.4]octan-6-yl]-5-(trifluoromethyl)furan-2-carboxamide] | 4.41 µM | 4.01 µM | 83.2 µM
O=C(NC1CCC2(CC1)CN(c1nc3cc(Cl)ccc3o1)C2)c1ccc(C(F)(F)F)o1 [Example 70, N-[2-(5-chloro-1,3-benzoxazol-2-yl)-2-azaspiro[3.5]nonan-7-yl]-5-(trifluoromethyl)furan-2-carboxamide] | 6.09 µM | 2.96 µM | > 100 µM
O=C(NC1CC2(CCN(c3nc4cc(Cl)ccc4o3)C2)C1)C1CCS(=O)(=O)C1 (stereo not drawn) [Example 71, N-[6-(5-chloro-1,3-benzoxazol-2-yl)-6-azaspiro[3.4]octan-2-yl]-1,1-dioxo-thiolane-3-carboxamide] | 8.21 µM | 5.96 µM | 94.1 µM
O=C(NC1CC2(CCN(c3nc4cc(Cl)ccc4o3)C2)C1)c1ccc(C(F)(F)F)o1 (stereo not drawn) [Example 72, N-[6-(5-chloro-1,3-benzoxazol-2-yl)-6-azaspiro[3.4]octan-2-yl]-5-(trifluoromethyl)furan-2-carboxamide] | 7.9 µM | 4.36 µM | 81.4 µM
O=C(NC1CC2(CCN(c3nc4ccc(Cl)cc4o3)C2)C1)C1CCS(=O)(=O)C1 (stereo not drawn) [Example 73, N-[6-(6-chloro-1,3-benzoxazol-2-yl)-6-azaspiro[3.4]octan-2-yl]-1,1-dioxo-thiolane-3-carboxamide] | 6.32 µM | 3.05 µM | > 100 µM
O=C(NC1CCC2(CCN(c3nc4cc(Cl)ccc4o3)C2)C1)C1CCS(=O)(=O)C1 (stereo not drawn) [Example 74, N-[2-(5-chloro-1,3-benzoxazol-2-yl)-2-azaspiro[4.4]nonan-8-yl]-1,1-dioxo-thiolane-3-carboxamide] | 4.33 µM | 3.73 µM | > 100 µM
O=C(NC1CCC2(CCN(c3nc4cc(Cl)ccc4o3)C2)C1)c1ccc(C(F)(F)F)o1 (stereo not drawn) [Example 75, N-[2-(5-chloro-1,3-benzoxazol-2-yl)-2-azaspiro[4.4]nonan-8-yl]-5-(trifluoromethyl)furan-2-carboxamide] | 8.28 µM | 7.81 µM | 91.2 µM
